Source: patent publication US11806344B2, “Pharmaceutical composition comprising mineralocorticoid receptor antagonist and use thereof” (priority 2016, dated 2023)
Like-named read-outs stand apart in the source and are kept apart here.

How the values were obtained:
[1] = Absorption of Compound I D90 5 μm suspension in Beagle dogs (Example 3-2); format: in vivo; conditions: intragastric single dose 0.5 mg/kg, suspension in 0.5% MC
Method: Sample to test: Compound I having D90 of 5 μm was suspended in 0.5% MC immediately before tests, to prepare 0.25 mg/mL suspension.
Animals: Three Beagle Dogs.
(1) All animals fasted for 12 h or longer before drug administration, and food was supplied 4 h after drug administration, with ad libitum access to water all the time. […] The collected blood was stored in a dry tube with heparin (normal saline containing 0.1% heparin sodium). (2) Plasma preparation: The whole blood samples collected in step (1) were subject to centrifugation at a low speed (8000 r/min, 6 min, 4° C.) to separate the plasma (the whole blood was stored in a mobile freezer at about 0 to 4° C., and plasma had to be separated within 30 minutes after the blood collection), and the plasma was kept in dark in a freezer at −70° C. (or lower) for future analysis.

[2] = Absorption of Compound I of different particle sizes/formulations in male SD rats (Example 3-1); format: in vivo; conditions: intragastric single dose 1.0 mg/kg; for AUCINF: 1 mg/kg; for BA %: absolute bioavailability vs IV 2.0 mg/kg
Method: Compound I with different formulations and/or different D90 values was compared for absorptions in male SD rats.
Samples to test: Compound I was prepared by the method as described in Example 1 of WO2014094664A1, and then pulverized to provide Compound I samples having D90 of 538 nm, 3.8 μm, 21.7 μm, 41.5 μm and 71.6 μm, respectively; immediately before the tests, these samples were suspended in 0.5% MC to obtain 1 mg/mL suspensions.
Solutions: 5% DMSO+95% (solution containing 6% HP-β-CD)
Solid dispersions: Compound I: Polyvinylpyrrolidone K30=1:8 (w/w)
The formulation for intravenous injection was a solution where Compound I was dissolved in 5% DMSO+95% (6% HP-β-CD solution), and SD rats were administered at a dose of 2 mg/kg.

[3] = tested on: patients with diabetic nephrophthy; conditions: cited from earlier work
[4] = rat, in vivo, po, 1 mg/kg
Method: Blood collection: The animals were fixed and had their tails warmed in a water bath 10 min prior to blood collection; about 100 μL of blood was collected through the tail vein for each animal and put into an anticoagulation tube containing hepatin; the blood samples were subject to centrifugation at 8000 rpm for 6 min at 4° C. to obtain plasma samples, which had to be obtained within 30 minutes after blood was collected; the plasma samples were stored in a freezer at −80° C. for future tests.
Sample analysis: 50 μL of each plasma sample from the freezer was transferred to a centrifugal tube; 100 μL of water and 400 μL of MTBE standard solution (50 ng/mL) were added into the tube and well mixed with the plasma; the obtained mixture was mixed for 10 minutes using a vortex mixer and then subject to centrifugation for 5 minutes (12000 r/min); 300 μL of the supernatant was transferred to another centrifugal tube and blown dry with nitrogen gas; the resultant substance was dissolved in 200 μL of a solution consisting of methanol and water at a ratio of 1:1, of which 20 μL was used for the LC-MS/MS measurement.
Data processing: the compound concentration was output by Analyst 1.6.1 (AB Sciex); the means, standard deviations, and variation coefficients were calculated using Microsoft Excel (no calculation needed if these parameters were directed output by Analyst 1.6.1), and pharmacokinetic parameters were determined using the NCA analysis object in Pharsight Phoenix 6.3.

Compound `N#Cc1ccc(N2N=C3c4ccc(C(=O)N5CCC(O)CC5)nc4CC[C@@H]3[C@@H]2C2CCCC2)cc1Cl` [Compound I having D90 of 5 μm] has an AUC(0-inf) ([1]; dog, plasma, po) of 506 ng·h/mL and a BA % [1] of 57.4%.
`N#Cc1ccc(N2N=C3c4ccc(C(=O)N5CCC(O)CC5)nc4CC[C@@H]3[C@@H]2C2CCCC2)cc1Cl` [Compound I with D90 of 3.8 μm] gave an AUCINF [2] of 1045 ng·h/mL and a BA % [2] of 66.9%.
`N#Cc1ccc(N2N=C3c4ccc(C(=O)N5CCC(O)CC5)nc4CC[C@@H]3[C@@H]2C2CCCC2)cc1Cl` [Compound I with D90 of 21.7 μm] gave an AUCINF [2] of 854 ng·h/mL and a BA % [2] of 54.6%.
`N#Cc1ccc(N2N=C3c4ccc(C(=O)N5CCC(O)CC5)nc4CC[C@@H]3[C@@H]2C2CCCC2)cc1Cl` [Compound I with D90 of 41.5 μm] gave an AUCINF [2] of 545 ng·h/mL and a BA % [2] of 34.8%.
In the case of `N#Cc1ccc(N2N=C3c4ccc(C(=O)N5CCC(O)CC5)nc4CC[C@@H]3[C@@H]2C2CCCC2)cc1Cl` [Compound I with D90 of 72.0 μm], the AUCINF [2] is reported as 207 ng·h/mL, the BA % [2] is reported as 13.2% and the BA % ([2]; listed as Compound I with D90 of 72.2 μm) is reported as 13.2%.
With `N#Cc1ccc(N2N=C3c4ccc(C(=O)N5CCC(O)CC5)nc4CC[C@@H]3[C@@H]2C2CCCC2)cc1Cl` [Compound I with D90 of 538 nm] the AUCINF [2] was 1287 ng·h/mL and the BA % [2] was 82.3%.
In the case of `CCOc1ncc(C)c2c1[C@H](c1ccc(C#N)cc1OC)C(C(N)=O)=C(C)N2` [Finerenone], the UACR reduced ([3]; Finerenone 7.5 mg/day) is given as 21%, the “incidence of discontinuation due to onset of hyperkalemia” value (“incidence of discontinuation due” for short) ([3]; Finerenone 7.5 mg/day) is given as 2.1% and the UACR reduced ([3]; Finerenone 10 mg/day) is given as 24%. The “incidence of discontinuation due” value ([3]; Finerenone 10 mg/day) was 0%, the UACR reduced ([3]; Finerenone 15 mg/day) was 33% and the “incidence of discontinuation due” value ([3]; Finerenone 15 mg/day) was 3.2%. The UACR reduced ([3]; Finerenone 20 mg/day) was 38% and the “incidence of discontinuation due” value ([3]; Finerenone 20 mg/day) was 1.7%.
In the case of Carbomer, the AUCINF [4] is reported as 289 ng·h/mL.
In the case of Hydroxypropyl cellulose, the AUCINF [4] is reported as 535 ng·h/mL.
Hydroxypropyl methyl cellulose showed an AUCINF [4] of 483 ng·h/mL.
In the case of Poloxamer 188, the AUCINF [4] is reported as 712 ng·h/mL.
Work on Polyethylene glycol 400 yielded an AUCINF [4] of 613 ng·h/mL.
Polyoxyl(40) stearate gave an AUCINF [4] of 427 ng·h/mL.
Polysorbate 80 showed an AUCINF [4] of 654 ng·h/mL.
For Polyvinyl alcohol, the AUCINF [4] was 603 ng·h/mL.
In the case of hydroxypropyl-β-cyclodextrin, the AUCINF [4] is reported as 350 ng·h/mL.
